From publication PMC9959553, “Promising Antifungal Molecules against Mucormycosis Agents Identified from Pandemic Response Box®: In Vitro and In Silico Analyses” (Journal of Fungi, 2023)
Where a SMILES comes first, the peptide text is derived from it.

The compounds below were run on R. oryzae UCP1295 (assay: Screening of the Pandemic Response Box library at 5 µM). Details: 48 h, Table S1, mean of the four values.
Format: cell-based, Rhizopus oryzae
Description: Rhizopus oryzae UCP is the most prevalent Mucorales species in human infections and was used as a reference strain to screen the Pandemic Response Box® library. Screening was performed according to Rollin-Pinheiro and colleagues. Each compound was diluted in RPMI 1640 medium (Sigma Chemical Co., St. Louis, MO, USA), supplemented with 2% glucose and buffered with 3-(N-morpholino) propanesulfonic acid (MOPS) (Sigma Chemical Co., St. Louis, MO, USA) (0.165 mol/L, pH 7.2, from here on referred to as ‘supplemented RPMI’) to reach 5 μM in 96-well microtiter plates. Posaconazole (5 μM) and supplemented RPMI containing 1% DMSO were used as controls (both from Sigma Chemical Co., St. Louis, MO, USA). Conidia (2 × 10^5/mL) were added and incubated for 48 h at 37 °C in a 5% CO2 atmosphere. […] An inhibition of at least 60% was defined as the cut-off to select the promising drugs with antifungal activity against the Rhizopus species.

| Structure (SMILES) | % of growth inhibition, Mean |
| --- | --- |
| O=c1ccc2ncc(=O)n3c2n1CC3CN1CCC(NCc2cc3c(cn2)OCCC3)CC1 (stereo not drawn) [MMV1578568] | -14.8% |
| O=C1NC(=S)N/C1=C\c1cc(Br)cc(Br)c1O [MMV1578569] | -14.5% |
| CCC(C)NCC(O)Cn1c2ccc(Cl)cc2c2cc(Cl)ccc21 (stereo not drawn) [MMV1578570] | -22.7% |
| CC(C)(C)c1cc(C(=O)/C(C#N)=N/Nc2cccc(Cl)c2)no1 [MMV1578571] | -7.2% |
| COc1cc(NC(=O)CN2C(=O)NC(c3ccccc3)(c3ccccc3)C2=O)cc(OC)c1 [MMV1578572] | -14.6% |
| COc1ccc(SCC(=O)N2c3ccccc3Sc3ccccc32)cc1 [MMV1578573] | -3.7% |
| CN(C)[C@@H]1C(=O)C(C(N)=O)=C(O)[C@@]2(O)C(=O)C3=C(O)c4c(O)c(NC(=O)CN5CCCC5)cc(F)c4C[C@H]3C[C@@H]12.Cl.Cl [MMV1578574] | -44.3% |
| CC(=O)O[C@H]1C[C@@]2(C)[C@@H](C[C@@H](O)[C@H]3[C@@]4(C)CC[C@@H](O)[C@@H](C)[C@@H]4CC[C@@]32C)/C1=C(\CCC=C(C)C)C(=O)O [MMV1578575] | -21.4% |
| O=C(Cc1ccccc1F)Nc1nc2ccccc2[nH]1 [MMV1578576] | -39.7% |
| O=C(NC12CC3CC(CC(C3)C1)C2)c1cc2ccccc2[nH]1 [MMV1578577] | -4.8% |
| O=C(Nc1nnc(-c2ccccc2)o1)c1ccc(F)cc1 [MMV1578578] | -32.9% |
| COc1ccc(C)cc1NC(=O)c1ccc(S(=O)(=O)N2CCCCC2)cc1 [MMV1578579] | -3.3% |
| CCCCOC(=O)Nc1cc2nc(C3CCCCC3)[nH]c2cc1N(CC)CC [MMV1578842] | -0.4% |
| O=c1cc(NCCCN[C@@H]2CCOc3c(Br)cc(Br)cc32)[nH]c2ccsc12 [MMV1578884] | -1.3% |
| O=c1nc(N2CCN(CC3CCCCC3)CC2)sc2c([N+](=O)[O-])cc(C(F)(F)F)cc12 [MMV1578885] | -14.2% |
| c1ccc(Cn2c(-c3ccccn3)nc3ccccc32)cc1 [MMV1578886] | -11.3% |
| Fc1ccc2c(/C=C/c3cccnc3)c[nH]c2c1 [MMV1578889] | -15.1% |
| O=S(=O)(Nc1cccc2cccnc12)c1ccccc1 [MMV1578890] | 0.6% |
| O=C(Cn1cnc2ccccc2c1=O)Nc1ccccc1 [MMV1578891] | -16.0% |
| Cc1ccc(NC(=O)c2cc(Cl)ccc2O)cc1 [MMV1578897] | -1.2% |
| CCOC(=O)N1CCN(c2ccc(Cl)cc2)CC1 [MMV1578898] | 0.3% |
| CCCC(=O)OCCc1ccccc1 [MMV1578899] | -2.6% |
| CC(Oc1ccc(Cl)cc1Cl)C(=O)NCc1ccc2c(c1)OCO2 (stereo not drawn) [MMV1578925] | -25.4% |
| C=C(C)n1c(=O)n(Cc2ccccc2C)c2ccccc21 [MMV1579354] | -31.3% |

| Structure (SMILES) | % of growth inhibition, Mean |
| --- | --- |
| O=c1cc(OCc2ccccc2)ccn1Cc1ccccc1 [MMV1579775] | -7.1% |
| NS(=O)(=O)c1ccc(NC(=O)NC(c2ccccc2)c2ccccc2)cc1 [MMV1579776] | -24.2% |
| O=[N+]([O-])c1cn(Cc2nc(O)nc(O)c2Br)cn1 [MMV1579777] | -6.3% |
| C[C@H](NC(CC(=O)c1ccccc1C(F)(F)F)C(=O)O)c1ccccc1 (stereo partly drawn) [MMV1579778] | -13.5% |
| CC(=O)Nc1cc(NS(=O)(=O)c2ccc(Cl)cc2)cc2c(Cl)n[nH]c12 [MMV1579779] | -33.3% |
| CC(C)n1cnc2c(NCc3ccccc3)nc(NCc3ccccc3)nc21 [MMV1579780] | -15.2% |
| CC(Cc1ccccc1)C(=O)Nc1ccc(Cl)cc1C(=O)O (stereo not drawn) [MMV1579781] | -32.3% |
| Cc1cccc(CC(=O)N[C@H]2CCOC2=O)c1 [MMV1579782] | -2.1% |
| CCCCSc1nc(N)c2[nH]c(=O)c(=O)n(Cc3ccccc3)c2n1 [MMV1579783] | -34.5% |
| O=C(Nc1ccccc1C(=O)O)c1cccc(Oc2ccccc2)c1 [MMV1579784] | -27.4% |
| N#CCN1C(=O)COc2cc(F)c(N3C(=O)c4ccccc4C3=O)cc21 [MMV1579785] | -18.3% |
| Cl.Cl.NCCCc1ccccc1C(=O)Nc1ncc([N+](=O)O)s1 [MMV1579786] | -16.7% |
| O=C(CP(=O)(O)O)NCCc1cccc(Oc2ccccc2)c1 [MMV1579787] | -30.1% |
| Cc1c(CN(C)C(=O)/C=C/c2cnc3c(c2)C(C)(C)C(=O)N3)oc2ccccc12 [MMV1579788] | -28.8% |
| Cl.N=C(N)c1ccc(COc2ccc(Cl)cc2)cc1 [MMV1579844] | -3.3% |
| O=C(NCc1cccc2ccccc12)c1cccs1 [MMV1579845] | -15.7% |
| COc1cc(Cc2cc(N)nc(N)n2)cc(OC)c1OC [MMV1579846] | -11.6% |
| Cc1ccn2c(C(=O)NCc3ccccc3)c(C)nc2c1 [MMV1579847] | -7.2% |
| CC(N)C(=O)NC(CCCCN)C(=O)NC(CCCNC(=N)N)C(=O)NC(Cc1c[nH]cn1)C(=O)NC(Cc1c[nH]cn1)C(=O)NCC(=O)NC(Cc1ccc(O)cc1)C(=O)NC(CCCCN)C(=O)NC(CCCNC(=N)N)C(=O)NC(CCCCN)C(=O)NC(Cc1ccccc1)C(=O)NC(Cc1c[nH]cn1)C(N)=O (stereo not drawn) [MMV1579849] (H-AKRHHGYKRKFH-NH2; configuration not given here) | -25.8% |
| N[C@@H]1CN(c2c(F)cc3c(=O)c(C(=O)O)cn([C@@H]4C[C@@H]4F)c3c2Cl)CC12CC2 [MMV1579850] | -4.9% |
| O=C(O)c1ccccc1Sc1ncnc2sc3c(c12)CCC3 [MMV1579878] | -41.9% |
| COc1cc(NCc2ccc3nc(N)nc(N)c3c2C)cc(OC)c1OC [MMV1580173] | 46.8% |
| C[C@H](Cn1cnc2c(N)ncnc21)OCP(=O)(O)O [MMV1580478] | -19.5% |
| CN(C)CC(=O)Nc1ccc2[nH]c(=O)c3ccccc3c2c1 [MMV1580480] | -3.9% |

| Structure (SMILES) | % of growth inhibition, Mean |
| --- | --- |
| CN1CCN(Cc2ccc(-c3cnc4[nH]cc(-c5ccc6[nH]ccc6c5)c4c3)cc2)CC1 [MMV1580482] | 1.5% |
| CN(C)CCCOc1ccc(-c2ccc3ncc4c(c3c2)n(C2CCOCC2)c(=O)n4C)cn1 [MMV1580483] | -5.4% |
| COc1ccccc1NC(=O)c1ccccc1Sc1ccc([N+](=O)[O-])cc1 [MMV1580484] | -7.7% |
| COc1ccc(OCc2ccc(COc3c(Cl)cccc3Cl)cc2)c(Cl)c1 [MMV1580485] | -2.8% |
| Cc1nc(N(C)C(=O)Cc2ccc(-c3ccccn3)cc2)sc1S(N)(=O)=O [MMV1580486] | -4.4% |
| C/C(=N\NC(=O)C1CC1c1ccccc1)c1ccc(NC(=O)c2ccco2)cc1 (stereo not drawn) [MMV1580487] | 0.3% |
| CN(C)CCCNC(=O)c1ccc(-c2cc(O)c3ncccc3c2)cc1 [MMV1580488] | 37.5% |
| CC[N+]1(C/C2=C/CCCCCC2)CCC(NC(=O)C2c3cc(Cl)ccc3Oc3ccc(Cl)cc32)CC1.[I-] (stereo not drawn) [MMV1580489] | -4.5% |
| c1cnc(NCc2ccc(CNc3ncccn3)cc2)nc1 [MMV1580490] | -10.6% |
| CCOC(=O)/C=C/[C@H](C[C@@H]1CCNC1=O)NC(=O)[C@@H](CC(=O)[C@@H](NC(=O)c1cc(C)on1)C(C)C)Cc1ccc(F)cc1 [MMV1580491] | -18.6% |
| CC(C)Oc1ccc(-c2nc(-c3cccc4c3CC[C@@H]4NCCO)no2)cc1C#N [MMV1580492] | -7.3% |
| O=C(/C=C\n1cnc(-c2cc(C(F)(F)F)cc(C(F)(F)F)c2)n1)NNc1ccccn1 [MMV1580493] | 42.7% |
| CCC[C@H](NC(=O)[C@@H]1[C@H]2CCC[C@H]2CN1C(=O)[C@@H](NC(=O)[C@@H](NC(=O)c1cnccn1)C1CCCCC1)C(C)(C)C)C(=O)C(=O)NC1CC1 [MMV1580494] | -15.1% |
| Nc1cnn(C2OC(CO)C(O)C2O)c(=O)n1 (stereo not drawn) [MMV1580495] | -5.9% |
| NC(=S)N/N=C/c1ncccc1N [MMV1580496] | -9.1% |
| CC(C)(C)NC(=O)N[C@H](C(=O)N1C[C@H]2[C@@H]([C@H]1C(=O)NC(CC1CCC1)C(=O)C(N)=O)C2(C)C)C(C)(C)C (stereo partly drawn) [MMV1580497] | -8.5% |
| O=C(O)C[C@H]1CC[C@H](c2ccc(-c3ccc(Nc4ccc(C(F)(F)F)nc4)cn3)cc2)CC1 [MMV1580498] | -26.7% |
| COc1ccc(NS(=O)(=O)c2ccc(Cl)s2)cn1 [MMV1580499] | -3.0% |
| Cn1c2ccccc2c(=O)c2c(O)cccc21 [MMV1580500] | -3.0% |
| CC1(C)CC(NC(=O)C(=O)Nc2ccc(Cl)cc2)CC(C)(C)N1 [MMV1580501] | -11.4% |
| c1cc(CN2CCCNCCNCCCNCC2)ccc1CN1CCCNCCNCCCNCC1 [MMV1580502] | 52.2% |
| CC(=O)N1c2ccccc2NC2=C(C(=O)CC(C)(C)C2)C1c1ccc(OCc2ccccc2)cc1 (stereo not drawn) [MMV1580503] | -1.0% |
| Oc1ccc(NCc2ccccc2OCc2ccccc2)cc1 [MMV1580504] | -5.9% |
| O=C(Nc1ccc(N2CCN(C(=O)c3ccccc3)CC2)cc1)c1ccc2c(c1)OCO2 [MMV1580505] | -9.9% |
